Tests used:
pregnant rat = test: luteolytic activity in the pregnant rat at the 9th-10th day of pregnancy; type: in vivo; settings: relative to PGF2α = 1 (conventional value)
Source text: The action selectivity of the 13,14-dehydro compounds on the miometrium and on the reproductive apparatus is also proven by the remarkable increase of the luteolytic activity in the pregnant rat at the 9th-10th day of pregnancy. In fact, if the conventional value of 1 is given to the luteolytic activity of PGF2α, the value of 30 is to be given to the luteolytic acitivity of 17-cyclohexyl-20,19,18-trinor-PGF2α, and the value of 200 to the luteolytic activity of 13,14-dehydro-17-cyclohexyl-20,19,18-trinor-PGF2α.

rat stomach fundus = rat stomach fundus test (spasmogenic activity); settings: relative to PGF2α = 1 (conventional value); in vitro, male Sprague-Dawley rats
Source text: (§1) The same compound (13,14-dehydro-17-cyclohexyl-20,19,18-trinor-PGF2α) was compared with PGF2α and with the olefinic analogue 5c,13t-9α,11α,15S-trihydroxy-20,19,18-trinor-17-cyclohexyl-prosta-5,13-dienoic acid (17-cyclohexyl-20,19,18-trinor-PGF2α) in the following in vitro tests: guinea pig ileum test, rat uterus test, rat stomach fundus. The results are reported in the following Table, wherein to the activity of PGF2 the conventional value of 1 was given in all the tests. The three tests relate to the determination of the spasmogenic activity.
The rat stomach fundus test was performed in the following manner: male albino rats of the Sprague-Dawley strain weighing 200-250 g were utilized. The stomach fundus strip was prepared according to Vane (J. R. Vane, Brit. J. Pharmacol. 12, 344, (1957)). The strip was suspended in a 10 ml organ bath containing Tyrode solution gassed with a mixture of O2 and CO2 (95:5%). The contractions of the strip were recorded using a isotonic frontal lever as in the preceding tests.

guinea pig ileum = guinea pig ileum test (spasmogenic activity); settings: relative to PGF2α = 1 (conventional value); in vitro, 35° C., Tyrode solution
Source text: as §1
The guinea pig ileum test consisted of a 10 ml thermostatic bath held at 35° C., containing the ileum of a male guinea pig, under 0.5 g traction, carboxygenated in a Tyrode solution; this was left for 30 minutes to stabilize before the compounds were tested. The response was recorded using a isotonic frontal lever, long enough to amplify the response 4.5 times.

rat uterus [1] = test: antagonism of PGF2α on the rat uterus; settings: tested against PGF2α
[2] = target: T1, 15-hydroxy-prostaglandin-dehydrogenase (Homo sapiens, UniProt P15428); test: inhibition of 15-hydroxy-prostaglandin-dehydrogenase drawn from human placenta, in vitro; type: biochemical
T1 construct: 15-hydroxy-prostaglandin-dehydrogenase drawn from human placenta; from tissue; host or cells: human placenta
T1 sequence (P15428 1-266): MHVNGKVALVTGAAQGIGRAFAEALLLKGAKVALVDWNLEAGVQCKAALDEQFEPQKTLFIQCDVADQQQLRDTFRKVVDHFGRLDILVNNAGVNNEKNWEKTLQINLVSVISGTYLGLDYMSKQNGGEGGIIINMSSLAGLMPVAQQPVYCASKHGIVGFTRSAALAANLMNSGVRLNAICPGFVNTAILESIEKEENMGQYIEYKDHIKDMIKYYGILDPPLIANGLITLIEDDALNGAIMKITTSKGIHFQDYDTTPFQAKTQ
Source text: The compounds of formula (I) furthermore inhibit the use of natural prostaglandins as substrate by the enzyme.

rat uterus [3] = test: rat uterus test (spasmogenic activity); settings: for ratio Uterus/Ileum / ratio Uterus/Stomach Fundus: ratio of activities relative to PGF2α; for ratio Uterus/Ileum: rat uterus / guinea pig ileum; for ratio Uterus/Stomach Fundus: rat uterus / rat stomach fundus; for spasmogenic activity, Rat Uterus: relative to PGF2α = 1 (conventional value), in vitro, 29° C., oestrogenized rat uteri
Source text: as §1
The rat uterus test consisted of a 10 ml thermostatic bath held at 29° C., in which oestrogenized rat uteri under 0.5 g traction were carboxygenated in a Dejalon saline solution. The preparation was left to stabilize for 30 minutes before the compounds were tested. Response was measured using a isotonic frontal lever, long enough to amplify the response 4.5 times.

Ki ([2]; inhibition with respect to PGE2) [µM]	Ki ([2]; inhibition with respect to PGF2α) [µM]	kind of inhibition ([2]; with respect to PGE2)	kind of inhibition ([2]; with respect to PGF2α)	SMILES	luteolytic activity (pregnant rat)	spasmogenic activity, Rat Stomach Fundus (rat stomach fundus)	spasmogenic activity, Guinea Pig Ileum (guinea pig ileum)	antagonism of PGF2α on the rat uterus (rat uterus [1])	ratio Uterus/Ileum (rat uterus [3])	ratio Uterus/Stomach Fundus (rat uterus [3])	spasmogenic activity, Rat Uterus (rat uterus [3])
468	152	noncompetitive	partially competitive	O=C(O)CCCC=CCC1C(O)CC(O)C1C#CC(O)CCC1CCCCC1 (stereo not drawn) [5c-9α,11α,15S-trihydroxy-20,19,18-trinor-17-cyclohexyl-prost-5-en-13-ynoic acid]	200	1.96	0.17	able to antagonize PGF2α specifically and selectively	91	8	15.7
				CCCCC[C@H](O)/C=C/[C@@H]1[C@@H](C/C=C\CCCC(=O)O)[C@@H](O)C[C@H]1O [PGF2α]	1				1	1	
				O=C(O)CCCC=CCC1C(O)CC(O)C1C=CC(O)CCC1CCCCC1 (stereo not drawn) [17-cyclohexyl-20,19,18-trinor-PGF2α, 5c,13t-9α,11α,15S-trihydroxy-20,19,18-trinor-17-cyclohexyl-prosta-5,13-dienoic acid]	30	1.86	0.60		5.4	1.7	3.23
